Measurements reported in ChEMBL document CHEMBL1201862, “PubChem BioAssay data set” (2004).
The source made the active and inactive calls.

Legend:
[1] = target: T1, Short transient receptor potential channel 4 (Mus musculus, UniProt Q9QUQ5); experiment: mouse TRPC4 channel inhibitors, dose response, cell-based, HEK293 TRPC4/mu-opioid, Fluo-4 calcium (AID 434942); format: functional;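 also: potency of inhibitors blocking the TRPC4 calcium response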
T1 sequence (Q9QUQ5 whole entry): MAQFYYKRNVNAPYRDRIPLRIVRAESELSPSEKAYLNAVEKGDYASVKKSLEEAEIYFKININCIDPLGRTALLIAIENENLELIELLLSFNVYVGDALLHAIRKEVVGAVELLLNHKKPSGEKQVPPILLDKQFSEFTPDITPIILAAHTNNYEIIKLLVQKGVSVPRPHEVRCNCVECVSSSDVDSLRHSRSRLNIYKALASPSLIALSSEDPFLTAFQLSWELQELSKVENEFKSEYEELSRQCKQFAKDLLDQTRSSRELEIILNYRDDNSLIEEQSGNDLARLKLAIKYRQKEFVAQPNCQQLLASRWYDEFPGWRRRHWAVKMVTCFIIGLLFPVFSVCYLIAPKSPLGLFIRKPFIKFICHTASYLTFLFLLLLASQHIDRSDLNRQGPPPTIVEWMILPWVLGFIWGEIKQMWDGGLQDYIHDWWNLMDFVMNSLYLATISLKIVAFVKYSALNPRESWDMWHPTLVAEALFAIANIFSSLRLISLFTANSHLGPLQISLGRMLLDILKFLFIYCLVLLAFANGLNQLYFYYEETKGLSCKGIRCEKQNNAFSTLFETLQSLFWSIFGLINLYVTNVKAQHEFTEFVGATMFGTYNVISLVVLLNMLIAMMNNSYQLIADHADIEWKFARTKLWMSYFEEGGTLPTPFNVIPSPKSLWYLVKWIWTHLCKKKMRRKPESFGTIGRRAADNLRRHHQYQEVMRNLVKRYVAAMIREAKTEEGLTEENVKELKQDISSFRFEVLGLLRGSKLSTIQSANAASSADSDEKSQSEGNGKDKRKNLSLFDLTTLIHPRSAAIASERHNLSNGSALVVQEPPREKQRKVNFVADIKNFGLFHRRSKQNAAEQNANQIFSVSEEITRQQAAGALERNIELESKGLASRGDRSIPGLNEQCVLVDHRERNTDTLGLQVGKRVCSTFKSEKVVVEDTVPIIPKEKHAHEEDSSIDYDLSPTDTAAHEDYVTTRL

[2] = Counterscreen for activators of the function of SWI/SNF related, matrix associated, actin dependent regulator of chromatin, subfamily a, member 2 (SMARCA2, BRM): Luminescence-based cell-based high throughput dose response assay to identify non-selective compounds using the VP16 reporter assay.; format: functional
[3] = target: T2, DNA repair protein RAD52 homolog (Homo sapiens, UniProt P43351); format: functional, biochemical
T2 sequence (P43351 whole entry): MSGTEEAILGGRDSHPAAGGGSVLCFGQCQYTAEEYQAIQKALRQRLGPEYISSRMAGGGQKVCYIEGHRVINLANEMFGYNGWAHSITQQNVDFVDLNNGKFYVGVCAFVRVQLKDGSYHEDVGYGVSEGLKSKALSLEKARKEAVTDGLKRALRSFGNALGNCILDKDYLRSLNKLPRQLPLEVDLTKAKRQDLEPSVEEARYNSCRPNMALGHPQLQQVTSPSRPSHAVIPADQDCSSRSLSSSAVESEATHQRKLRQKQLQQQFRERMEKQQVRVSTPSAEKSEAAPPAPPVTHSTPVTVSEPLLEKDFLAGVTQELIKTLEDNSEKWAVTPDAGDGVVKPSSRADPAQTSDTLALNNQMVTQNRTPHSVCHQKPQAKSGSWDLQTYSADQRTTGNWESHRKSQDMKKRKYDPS

[4] = target: SWI/SNF-related matrix-associated actin-dependent regulator of chromatin subfamily A member 2 (Homo sapiens, UniProt P51531); experiment: Luminescence-based cell-based high throughput dose response assay to identify activators of the function of SWI/SNF related, matrix associated, actin dependent regulator of chromatin, subfamily a, member 2 (SMARCA2, BRM).; format: functional
Sequence of SWI/SNF-related matrix-associated actin-dependent regulator of chromatin subfamily A member 2 (P51531 whole entry): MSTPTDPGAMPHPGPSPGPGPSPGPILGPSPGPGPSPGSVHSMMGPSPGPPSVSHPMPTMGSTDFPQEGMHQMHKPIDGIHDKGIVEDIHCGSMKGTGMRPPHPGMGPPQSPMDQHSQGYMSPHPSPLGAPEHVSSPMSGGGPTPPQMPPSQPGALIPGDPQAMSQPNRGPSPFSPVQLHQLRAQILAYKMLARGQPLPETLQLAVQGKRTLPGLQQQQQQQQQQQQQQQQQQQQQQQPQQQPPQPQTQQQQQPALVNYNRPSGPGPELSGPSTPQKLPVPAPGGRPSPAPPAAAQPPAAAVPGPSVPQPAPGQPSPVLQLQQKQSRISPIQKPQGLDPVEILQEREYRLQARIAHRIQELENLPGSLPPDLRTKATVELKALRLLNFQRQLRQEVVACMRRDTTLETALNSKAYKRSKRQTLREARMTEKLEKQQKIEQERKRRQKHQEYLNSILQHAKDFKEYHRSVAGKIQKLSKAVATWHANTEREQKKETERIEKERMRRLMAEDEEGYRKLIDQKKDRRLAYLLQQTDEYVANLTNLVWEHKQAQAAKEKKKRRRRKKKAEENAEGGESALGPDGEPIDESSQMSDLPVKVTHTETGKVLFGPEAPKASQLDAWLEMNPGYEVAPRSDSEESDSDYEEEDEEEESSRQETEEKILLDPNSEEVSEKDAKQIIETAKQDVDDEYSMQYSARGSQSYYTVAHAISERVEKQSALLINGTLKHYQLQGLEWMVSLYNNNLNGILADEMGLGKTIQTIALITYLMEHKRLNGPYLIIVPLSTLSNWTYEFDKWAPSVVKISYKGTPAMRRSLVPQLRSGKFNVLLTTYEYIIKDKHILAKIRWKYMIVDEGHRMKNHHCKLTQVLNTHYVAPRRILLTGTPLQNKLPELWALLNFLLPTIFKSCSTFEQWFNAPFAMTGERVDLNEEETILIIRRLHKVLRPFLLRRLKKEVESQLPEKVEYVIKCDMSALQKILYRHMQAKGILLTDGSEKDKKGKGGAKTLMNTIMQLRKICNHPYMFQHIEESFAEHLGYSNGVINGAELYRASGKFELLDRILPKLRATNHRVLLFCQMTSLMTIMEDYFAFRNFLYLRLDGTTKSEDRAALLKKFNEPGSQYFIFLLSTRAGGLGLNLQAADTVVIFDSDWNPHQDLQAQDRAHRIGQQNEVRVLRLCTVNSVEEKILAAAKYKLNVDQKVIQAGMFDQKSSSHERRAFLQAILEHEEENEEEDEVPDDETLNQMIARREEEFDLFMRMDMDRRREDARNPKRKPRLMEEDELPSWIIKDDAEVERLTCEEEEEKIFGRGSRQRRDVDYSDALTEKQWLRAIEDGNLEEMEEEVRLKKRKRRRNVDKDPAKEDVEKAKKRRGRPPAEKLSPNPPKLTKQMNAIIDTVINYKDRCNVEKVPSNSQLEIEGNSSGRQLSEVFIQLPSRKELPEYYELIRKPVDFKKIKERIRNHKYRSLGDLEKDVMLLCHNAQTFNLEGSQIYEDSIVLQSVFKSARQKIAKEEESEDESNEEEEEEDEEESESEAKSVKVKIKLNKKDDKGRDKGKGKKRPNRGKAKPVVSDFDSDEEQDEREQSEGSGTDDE

[5] = HEK293 cell viability, dose response, counter-screen for EBV LMP1 inhibitor project, dry powder, set 2 (AID 624374); format: functional
[6] = target: Broad substrate specificity ATP-binding cassette transporter ABCG2 (Homo sapiens, UniProt Q9UNQ0); experiment: ABCG2 efflux pump inhibitors, dose response, Ig-MXP3 cells, flow cytometry (AID 1690); format: functional
Sequence of Broad substrate specificity ATP-binding cassette transporter ABCG2 (Q9UNQ0 whole entry): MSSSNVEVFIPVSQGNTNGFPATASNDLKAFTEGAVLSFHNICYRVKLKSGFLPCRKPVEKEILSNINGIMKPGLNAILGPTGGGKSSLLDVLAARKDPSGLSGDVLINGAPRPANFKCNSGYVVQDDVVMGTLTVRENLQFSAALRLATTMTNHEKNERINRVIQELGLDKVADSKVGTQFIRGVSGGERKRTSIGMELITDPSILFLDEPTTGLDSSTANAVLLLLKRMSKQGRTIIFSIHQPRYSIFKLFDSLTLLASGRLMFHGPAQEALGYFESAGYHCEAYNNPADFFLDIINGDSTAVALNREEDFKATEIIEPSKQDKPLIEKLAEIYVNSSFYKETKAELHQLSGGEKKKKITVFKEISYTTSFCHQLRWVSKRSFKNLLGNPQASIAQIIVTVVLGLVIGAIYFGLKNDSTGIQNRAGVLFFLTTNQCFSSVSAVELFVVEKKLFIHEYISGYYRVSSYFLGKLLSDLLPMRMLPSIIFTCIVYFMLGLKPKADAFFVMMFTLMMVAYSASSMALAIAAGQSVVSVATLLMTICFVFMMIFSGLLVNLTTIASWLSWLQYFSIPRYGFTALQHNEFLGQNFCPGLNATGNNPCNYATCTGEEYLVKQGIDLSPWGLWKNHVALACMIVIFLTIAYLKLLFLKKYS

Streptococcus = experiment: Group A Streptococcus viability loss, dose response, counter-screen for streptokinase expression inhibitor project, luminescence, BacTiterGlo (AID 1915); format: functional, organism-based;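 also: potency for reduction of bacterial viability or growth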
[7] = cytotoxicity toward NIH3T3 fibroblasts, dose response, counter-screen, cell-based, ATP luminescence, mouse fibroblasts (AID 2010); format: functional;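 also: cells exposed to compound for about 90 hours before reading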
[8] = inhibitors of intracellular T. cruzi replication, confirmation, NIH3T3 host cells, beta-gal luminescence (AID 2044); format: functional, cell-based;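 also: intracellular parasites grown in NIH/3T3 mouse fibroblasts as host cells; luminescent beta-galactosidase reporter signal from transgenic T. cruzi replicating inside host cells; inhibitors lower the luminescence signal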
[9] = tested on: Streptococcus sp. 'group A'; experiment: growth inhibition of control SK(-) GAS strain, dose response, counter-screen for streptokinase expression inhibitor project, luminescence, kanamycin, BacTiterGlo, confirmation (AID 1900); format: functional, organism-based
Streptokinase A = target: T3, Streptokinase A (Streptococcus pyogenes serotype M1, UniProt P10520); experiment: S. pyogenes streptokinase expression inhibitors, potency, dose response, plasminogen activation absorbance, OD405 (AID 1914); format: functional, Streptococcus pyogenes M1 GAS;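 also: secreted streptokinase activity via plasminogen activation per viability signal from cell pellet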
T3 sequence (P10520 whole entry): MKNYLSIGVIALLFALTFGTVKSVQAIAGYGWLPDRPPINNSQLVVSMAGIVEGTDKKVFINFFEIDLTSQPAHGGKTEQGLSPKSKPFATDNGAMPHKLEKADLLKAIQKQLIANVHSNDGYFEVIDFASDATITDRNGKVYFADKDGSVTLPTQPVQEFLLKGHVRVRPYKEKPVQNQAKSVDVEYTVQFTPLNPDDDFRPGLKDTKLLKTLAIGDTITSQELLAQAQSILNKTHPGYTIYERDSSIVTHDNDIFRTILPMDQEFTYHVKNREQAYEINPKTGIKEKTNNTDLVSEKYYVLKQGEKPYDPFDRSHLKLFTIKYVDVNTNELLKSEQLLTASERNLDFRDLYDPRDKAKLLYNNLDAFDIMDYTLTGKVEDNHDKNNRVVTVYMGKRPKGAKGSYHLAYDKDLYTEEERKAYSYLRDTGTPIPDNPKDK

cells [10] = experiment: cells
[11] = target: Arf-GAP with SH3 domain, ANK repeat and PH domain-containing protein 1 (Homo sapiens, UniProt Q9ULH1); format: functional;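 also: biochemical fluorescence polarization dose–response screen measuring inhibition of ASAP1; ASAP1 GAP domain stimulating GTP hydrolysis by truncated human ARF1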
Sequence of Arf-GAP with SH3 domain, ANK repeat and PH domain-containing protein 1 (Q9ULH1 whole entry, the tested form may be a part): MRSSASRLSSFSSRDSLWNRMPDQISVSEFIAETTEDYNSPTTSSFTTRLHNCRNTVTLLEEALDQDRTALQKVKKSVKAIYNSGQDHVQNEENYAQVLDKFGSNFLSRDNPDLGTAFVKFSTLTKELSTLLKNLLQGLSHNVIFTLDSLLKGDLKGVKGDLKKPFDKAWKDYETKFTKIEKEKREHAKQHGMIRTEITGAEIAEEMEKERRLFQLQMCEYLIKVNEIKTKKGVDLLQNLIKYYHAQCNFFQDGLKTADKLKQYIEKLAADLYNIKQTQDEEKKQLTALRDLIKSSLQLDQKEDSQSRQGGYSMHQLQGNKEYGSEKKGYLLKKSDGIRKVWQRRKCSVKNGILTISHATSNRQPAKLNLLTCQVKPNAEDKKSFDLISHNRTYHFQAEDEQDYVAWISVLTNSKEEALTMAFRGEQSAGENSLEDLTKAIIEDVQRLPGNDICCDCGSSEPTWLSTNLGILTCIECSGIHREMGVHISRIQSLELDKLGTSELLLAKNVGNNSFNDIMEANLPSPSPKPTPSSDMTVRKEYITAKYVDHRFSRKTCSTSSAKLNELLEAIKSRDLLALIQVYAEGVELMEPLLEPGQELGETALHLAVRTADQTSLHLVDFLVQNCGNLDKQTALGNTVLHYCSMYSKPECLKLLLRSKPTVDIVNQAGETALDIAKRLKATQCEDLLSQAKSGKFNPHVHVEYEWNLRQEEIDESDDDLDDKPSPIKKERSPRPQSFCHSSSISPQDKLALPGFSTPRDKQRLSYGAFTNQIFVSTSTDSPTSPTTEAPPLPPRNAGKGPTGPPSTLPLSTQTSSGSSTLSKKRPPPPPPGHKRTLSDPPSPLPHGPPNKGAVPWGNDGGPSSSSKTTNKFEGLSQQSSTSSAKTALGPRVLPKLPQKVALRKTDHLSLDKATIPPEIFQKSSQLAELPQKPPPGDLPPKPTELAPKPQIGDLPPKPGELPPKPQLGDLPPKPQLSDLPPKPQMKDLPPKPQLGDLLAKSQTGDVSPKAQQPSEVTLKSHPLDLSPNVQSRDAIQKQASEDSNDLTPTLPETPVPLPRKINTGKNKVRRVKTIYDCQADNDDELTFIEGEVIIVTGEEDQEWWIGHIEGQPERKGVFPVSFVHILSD

[12] = inhibitors of HIV Env-driven cell fusion, dose response, cherry-pick (AID 652057); format: functional, cell-based
[13] = HepG2 cell cytotoxicity, dose response, cytotoxicity control for non-replicating M. tuberculosis project (AID 489018); format: functional; settings: Mycobacterium tuberculosis
[14] = THP-1 cell cytotoxicity, dose response, cytotoxicity control for non-replicating M. tuberculosis project (AID 489025); format: functional
[15] = microbe, parasite or virus in culture; format: functional; settings: Mycobacterium tuberculosis
[16] = ZM109 Env clade C HIV-1 fusion inhibitors, dose response, HeLa effector, CEM target cells, luciferase, cherry-pick (AID 652058); format: functional, cell-based
[17] = HeLa cell cytotoxicity, dose response, cytotoxicity control for MgcRacGAP inhibitor project (AID 624300); format: functional
[18] = off-target signal loss in HeLa-CEM21 co-culture – HeLa F-luc CTL cells, cherry-picked, counter-screen for HIV-1 Env fusion inhibitor project, dose response (AID 652040); format: functional, cell-based;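 also: potency for signal decrease marking cytotoxic or nonspecific inhibition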
[19] = inhibitors of clade B AD8 Env fusion, dose response, cell-based, cherry-pick (AID 652062); format: functional;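 also: luciferase signal from cell-cell fusion driven by HIV-1 clade B AD8 Env; potency is for inhibitors of fusion seen as a drop in luminescence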
cells [20] = format: functional
[21] = CEM21 lymphoblast cell cytotoxicity, dose response, cytotoxicity control for viral fusion inhibitor project, CellTiter-Glo luminescence, cherry-picked (AID 652042); format: functional, cell-based;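 also: potency for signal decrease meaning cytotoxicity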
[22] = target: T4, Rac GTPase-activating protein 1 (Homo sapiens, UniProt Q9H0H5); experiment: MgcRacGAP GTPase-activating activity inhibitors, confirmation, biochemical, ADP Hunter fluorescence, primary and confirmatory (AID 624330); format: functional
T4 sequence (Q9H0H5 whole entry): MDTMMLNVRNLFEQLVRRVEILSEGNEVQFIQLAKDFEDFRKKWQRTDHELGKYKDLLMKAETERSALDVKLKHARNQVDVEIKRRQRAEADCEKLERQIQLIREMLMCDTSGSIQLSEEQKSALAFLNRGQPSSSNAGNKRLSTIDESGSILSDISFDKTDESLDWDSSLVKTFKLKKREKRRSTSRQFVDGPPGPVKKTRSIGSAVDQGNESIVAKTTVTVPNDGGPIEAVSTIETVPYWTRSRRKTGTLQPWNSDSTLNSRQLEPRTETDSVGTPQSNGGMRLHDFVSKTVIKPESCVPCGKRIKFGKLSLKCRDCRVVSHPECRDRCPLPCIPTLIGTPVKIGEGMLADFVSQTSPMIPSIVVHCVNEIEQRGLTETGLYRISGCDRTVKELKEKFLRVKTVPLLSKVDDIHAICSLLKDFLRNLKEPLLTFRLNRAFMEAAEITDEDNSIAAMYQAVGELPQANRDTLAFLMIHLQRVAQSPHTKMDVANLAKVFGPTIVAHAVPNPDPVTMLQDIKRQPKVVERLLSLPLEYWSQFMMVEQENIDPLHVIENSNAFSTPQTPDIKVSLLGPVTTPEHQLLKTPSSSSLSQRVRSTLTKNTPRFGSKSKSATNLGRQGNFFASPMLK

A549 = experiment: A549 cell toxicity, dose response, cytotoxicity control, plate reader, cherry-pick samples (AID 687028); format: functional, cell-based; settings: Homo sapiens
Beta-lactamase [23] = target: T5, Beta-lactamase (Pseudomonas aeruginosa, UniProt Q79MP6); experiment: […] counterscreen for selective VIM-2 inhibitors: dose response biochemical high throughput screening assay to identify inhibitors of IMP-1 metallo-beta-lactamase.
T5 sequence (Q79MP6 whole entry): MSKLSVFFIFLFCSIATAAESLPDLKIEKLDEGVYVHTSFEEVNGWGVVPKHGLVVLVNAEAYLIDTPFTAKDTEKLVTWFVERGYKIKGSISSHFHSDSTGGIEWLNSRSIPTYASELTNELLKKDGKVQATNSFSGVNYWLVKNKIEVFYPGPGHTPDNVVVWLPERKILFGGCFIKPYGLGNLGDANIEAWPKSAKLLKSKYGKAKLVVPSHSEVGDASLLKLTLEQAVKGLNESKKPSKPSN

Beta-lactamase [24] = target: T5, Beta-lactamase; experiment: IMP-1 metallo-beta-lactamase inhibitors, dose response, selectivity assay for VIM-2 inhibitor project, biochemical, epi-absorbance (AID 1920)
Beta-lactamase [25] = target: Beta-lactamase (Salmonella choleraesuis (strain SC-B67), UniProt Q5J463); experiment: Epi-absorbance-based counterscreen for selective VIM-2 inhibitors: dose response biochemical high throughput screening assay to identify inhibitors of TEM-1 serine-beta-lactamase.
Sequence of Beta-lactamase (Salmonella choleraesuis (strain SC-B67), UniProt Q5J463) (Q5J463 whole entry): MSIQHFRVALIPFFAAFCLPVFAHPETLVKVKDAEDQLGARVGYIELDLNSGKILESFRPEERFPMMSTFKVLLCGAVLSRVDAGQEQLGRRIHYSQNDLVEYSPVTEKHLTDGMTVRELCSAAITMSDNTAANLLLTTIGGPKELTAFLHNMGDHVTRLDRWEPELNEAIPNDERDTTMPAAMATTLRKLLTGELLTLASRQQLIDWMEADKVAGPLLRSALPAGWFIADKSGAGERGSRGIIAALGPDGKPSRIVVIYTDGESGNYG

Trypsin = Trypsin (Sus scrofa, UniProt P00761); experiment: porcine trypsin inhibitors, dose response, selectivity assay for Rce1 protease inhibitor project, biochemical, quenched peptide fluorescence, cherry-pick (AID 488789)
Sequence of Trypsin (P00761 whole entry): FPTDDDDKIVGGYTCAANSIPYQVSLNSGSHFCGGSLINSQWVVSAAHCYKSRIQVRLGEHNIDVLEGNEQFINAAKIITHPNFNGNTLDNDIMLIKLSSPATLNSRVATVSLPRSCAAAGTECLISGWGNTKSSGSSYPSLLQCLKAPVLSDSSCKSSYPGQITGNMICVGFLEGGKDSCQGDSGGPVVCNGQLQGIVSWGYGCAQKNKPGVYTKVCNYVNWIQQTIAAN

H4 = experiment: Luminescence Cell-Based Dose Response HTS to Identify Activators of 5'UTR Stem-Loop Driven Prion Protein mRNA Translation in H4 Neuroglioblastoma Cells. [Related pubchem assays: 1829 (Project Summary), 1814 (Primary HTS)]; format: functional; settings: Homo sapiens
[26] = target: Induced myeloid leukemia cell differentiation protein Mcl-1 (Homo sapiens, UniProt Q07820); format: functional
Sequence of Induced myeloid leukemia cell differentiation protein Mcl-1 (Q07820 whole entry): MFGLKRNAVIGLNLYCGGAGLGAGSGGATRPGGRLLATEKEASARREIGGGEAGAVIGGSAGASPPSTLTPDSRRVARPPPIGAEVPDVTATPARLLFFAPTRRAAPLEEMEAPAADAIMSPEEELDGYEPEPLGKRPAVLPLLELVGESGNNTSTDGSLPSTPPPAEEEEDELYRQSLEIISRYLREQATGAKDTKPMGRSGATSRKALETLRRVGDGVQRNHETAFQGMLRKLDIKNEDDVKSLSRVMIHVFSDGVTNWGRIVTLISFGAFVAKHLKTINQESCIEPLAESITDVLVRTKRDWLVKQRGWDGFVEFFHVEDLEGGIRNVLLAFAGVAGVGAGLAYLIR

[27] = target: Eukaryotic translation initiation factor 4E (Mus musculus, UniProt P63073); experiment: eIF4E–eIF4G protein interaction inhibitors, dose response, biochemical, TR-FRET (AID 855); format: functional;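 also: potency for disrupting eIF4E binding to eIF4GI seen as loss of FRET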
Sequence of Eukaryotic translation initiation factor 4E (P63073 whole entry): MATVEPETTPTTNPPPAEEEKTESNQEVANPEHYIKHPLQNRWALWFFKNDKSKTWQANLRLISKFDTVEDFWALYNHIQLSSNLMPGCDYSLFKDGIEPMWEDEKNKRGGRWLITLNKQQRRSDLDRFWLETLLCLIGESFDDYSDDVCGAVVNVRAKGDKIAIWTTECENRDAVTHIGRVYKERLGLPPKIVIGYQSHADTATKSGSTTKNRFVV

[28] = Luminescence Cell-Based Dose Response HTS to Identify Activators of Luciferase Translation or Activity in H4 […] Cells. [Related pubchem assays: 1829 (Project Summary), 1814 (Primary HTS)]; format: functional
[29] = Luminescence Cell-Based Dose Confirmation HTS to Identify Activators of 5'UTR Stem-Loop Driven Alpha-Synuclein mRNA Translation in H4 Neuroglioblastoma Cells. [Related pubchem assays: 1829 (Project Summary), 1814 (Primary HTS)]; format: functional
[30] = target: Matrix metalloproteinase-14 (Homo sapiens, UniProt P50281); experiment: Dose Response confirmation of uHTS hits for a small molecule inhibitors of MT1-MMP activation in a fluorescence assay set 2.; format: functional

COc1nc(NC(=N)N)nc2ccc(C)cc12
EC50 [1]: 5.31 µM (active) | EC50 [2]: > 91.2 µM (inactive) | AC50 [3]: 9.39 µM (active) | EC50 [4]: > 3.38 µM (active)

CN(C)c1ccc2c(c1)[C@@H]1C[C@H](CC(=O)NCc3ccc(Oc4ccccc4)cc3)O[C@@H](CO)[C@@H]1O2
AbsAC35 [5]: 41.71 µM

COc1cccc(-c2nc(N3CC(C)CC(C)C3)c3ccccc3n2)c1O (centres undefined)
EC50 [6]: 1.04 µM (active) | EC50 (Streptococcus): 82.5 µM (active) | EC50 [7]: > 60 µM (not active) | EC50 [8]: 1.84 µM (active) | EC50 [9]: 5.15 µM (active) | EC50 (Streptokinase A): 6.53 µM (active)

COc1cc2oc3ccc(C#Cc4ccccn4)cc3c(=O)c2cc1OC
EC50 (cells [10]): 0.183 µM (active) | IC50 [11]: 44.1 µM (inactive) | EC50 [7]: > 60 µM (not active) | EC50 [8]: < 0.1 µM (active)

CC(NCCCOc1cccc2ccccc12)c1ccccc1 (centres undefined)
AC50 [12]: 2.23 µM (active) | CC50 [13]: > 20 µM (active) | CC50 [14]: 13.5 µM (active) | CC50 [15]: 23.1 µM (active) | AC50 [16]: 14.6 µM (active) | CC50 [17]: 36.2 µM (active) | AC50 [18]: 6.96 µM (active) | AC50 [19]: 19.2 µM (active) | IC50 (cells [20]): 35.9 µM (active) | AC50 [21]: 17.4 µM (active) | IC50 [22]: 161 µM (active)

COc1ccc(-c2ccc3c(c2)[C@@H]2[C@@H](CCN2C(=O)C2CCOCC2)[C@@H](CO)N3C)cc1
AC50 (A549): 27.8 µM (active)

CCCCn1c(S)nnc1-c1sccc1C
IC50 (Beta-lactamase [23]): > 59.6 µM (inactive) | IC50 (Beta-lactamase [24]): > 59.6 µM (inactive) | IC50 (Beta-lactamase [25]): > 59.6 µM (inactive) | AC50 (Trypsin): 10 µM (active)

COc1ccc2nc(N3C(=O)C(c4c(O)[nH]c5ccccc45)=NC3=S)sc2c1
EC50 (H4): 101 µM (active) | IC50 [26]: > 54 µM (active) | IC50 [27]: > 64 µM (inactive) | EC50 (Streptococcus): 2.41 µM (active) | EC50 [28]: 34.5 µM (active) | EC50 [29]: > 120 µM (not active) | EC50 [9]: 0.744 µM (active) | IC50 [30]: 37.6 µM (inactive)
